Experimental data as given in patent US10287301B2 (Achillion Pharmaceuticals, Inc., priority 2015, dated 2019).
Where a name gives a salt, the structure may show the parent alone.

Biological target: Human Factor D (Homo sapiens (Human), UniProt P00746)
Experiment: Human Factor D Assay
Assay type: biochemical
Settings: Table 3; Human Factor D 80 nM, substrate Z-L-Lys-SBzl; read-out: IC50 (Stars)
How it was run: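 Serum-purified human Factor D (80 nM final) was preincubated with test compound at various concentrations for 5 min at room temperature in 50 mM Tris, 1M NaCl, pH 7.5. Z-L-Lys-SBzl and DTNB were then added at 100 μM each. IC50 came from nonlinear regression of reaction rates versus compound concentration.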

Human Factor D, sequence (P00746 26-253): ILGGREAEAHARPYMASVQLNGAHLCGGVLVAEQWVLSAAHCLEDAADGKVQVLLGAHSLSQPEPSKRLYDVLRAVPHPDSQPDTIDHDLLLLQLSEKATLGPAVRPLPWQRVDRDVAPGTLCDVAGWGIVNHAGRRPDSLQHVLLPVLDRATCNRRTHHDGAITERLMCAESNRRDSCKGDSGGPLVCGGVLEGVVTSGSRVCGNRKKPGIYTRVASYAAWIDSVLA

| SMILES | IC50 |
| --- | --- |
| CC(=O)c1nn(CC(=O)N2[C@H](C(=O)Nc3cccc(Br)n3)C[C@@]3(CO)C[C@@H]23)c2ccc(-c3cnc(C)nc3)cc12 [Compound 392, (1R,3S,5S)-2-(2-(3-Acetyl-5-(2-Methylpyrimidin-5-yl)-1H-indazol-1-yl)acetyl)-N-(6-bromopyridin-2-yl)-5-(hydroxymethyl)-2-azabicyclo[3.1.0]hexane-3-carboxamide] | < 1000 nM |
| CO[C@H]1[C@@H](C(=O)Nc2cccc(Br)n2)N(C(=O)Cn2nc(C(C)=O)c3cc(-c4cnc(C)nc4)ccc32)C[C@@H]1F [Compound 393, (2S,3S,4S)-1-(2-(3-Acetyl-5-(2-methylpyrimidin-5-yl)-1H-indazol-1-yl)acetyl)-N-(6-bromopyridin-2-yl)-4-fluoro-3-methoxypyrrolidine-2-carboxamide] | < 1000 nM |
| COc1ccc(NC(=O)[C@@H]2C[C@@H](F)CN2C(=O)Cn2nc(C(C)=O)c3cc(-c4cnc(C)nc4)ccc32)nc1Br [Compound 394, (2S,4R)-1-(2-(3-Acetyl-5-(2-methylpyrimidin-5-yl)-1H-indazol-1-yl)acetyl)-N-(6-bromo-5-methoxypyridin-2-yl)-4-fluoropyrrolidine-2-carboxamide] | < 1000 nM |
| CC(=O)c1nn(CC(=O)N2C[C@@](F)(CN)C[C@H]2C(=O)Nc2cccc(Br)n2)c2ccc(-c3cnc(C)nc3)cc12 [Compound 395, (2S,4S)-1-(2-(3-Acetyl-5-(2-methylpyrimidin-5-yl)-1H-indazol-1-yl)acetyl)-4-(aminomethyl)-N-(6-bromopyridin-2-yl)-4-fluoropyrrolidine-2-carboxamide] | < 1000 nM |
| COC(=O)c1cc(Cl)nc(NC(=O)[C@@H]2C[C@@H](F)CN2C(=O)Cn2nc(C(C)=O)c3cc(-c4cnc(C)nc4)ccc32)c1 [Compound 396, Methyl 2-((2S,4R)-1-(2-(3-Acetyl-5-(2-methylpyrimidin-5-yl)-1H-indazol-1-yl)acetyl)-4-fluoropyrrolidine-2-carboxamido)-6-chloroisonicotinate] | < 1000 nM |
| CC(=O)c1nn(CC(=O)N2C[C@H](F)C[C@H]2C(=O)Nc2ccc(F)c(Br)n2)c2ccc(-c3cnc(C)nc3)cc12 [Compound 397, (2S,4R)-1-(2-(3-Acetyl-5-(2-methylpyrimidin-5-yl)-1H-indazol-1-yl)acetyl)-N-(6-bromo-5-fluoropyridin-2-yl)-4-fluoropyrrolidine-2-carboxamide] | < 1000 nM |
| CC(=O)c1nn(CC(=O)N2C[C@H](F)C[C@H]2C(=O)Nc2cncc(Br)n2)c2ccc(-c3cnc(CO)nc3)cc12 [Compound 398, (2S,4R)-1-(2-(3-Acetyl-5-(2-(hydroxymethyl)pyrimidin-5-yl)-1H-indazol-1-yl)acetyl)-N-(6-bromopyrazin-2-yl)-4-fluoropyrrolidine-2-carboxamide] | < 1000 nM |
| CC(=O)c1nn(CC(=O)N2CC(F)(CN)C[C@H]2C(=O)Nc2cccc(Br)n2)c2ccc(-c3cnc(C)nc3)cc12 (stereo partly drawn) [Compound 399, (2S)-1-(2-(3-acetyl-5-(2-methylpyrimidin-5-yl)-1H-indazol-1-yl)acetyl)-4-(aminomethyl)-N-(6-bromopyridin-2-yl)-4-fluoropyrrolidine-2-carboxamide] | < 1000 nM |
| CC(=O)c1nn(CC(=O)N2C[C@H](F)C[C@H]2C(=O)Nc2ccn(CC(F)F)n2)c2ccc(-c3cnc(C)nc3)cc12 [Compound 401, (2S,4R)-1-(2-(3-Acetyl-5-(2-methylpyrimidin-5-yl)-1H-indazol-1-yl)acetyl)-N-(1-(2,2-difluoroethyl)-1H-pyrazol-3-yl)-4-fluoropyrrolidine-2-carboxamide] | < 1000 nM |
| CC(=O)c1nn(CC(=O)N2C[C@H](F)C[C@H]2C(=O)Nc2ccc(C)c(Br)n2)c2ccc(-c3cnc(C)nc3)cc12 [Compound 402, (2S,4R)-1-(2-(3-Acetyl-5-(2-methylpyrimidin-5-yl)-1H-indazol-1-yl)acetyl)-N-(6-bromo-5-methylpyridin-2-yl)-4-fluoropyrrolidine-2-carboxamide] | < 1000 nM |
| CC(=O)c1nn(CC(=O)N2C[C@H](F)C[C@H]2C(=O)Nc2cccc(Br)n2)c2ccc(-c3cnc(CNC(=O)OC(C)(C)C)nc3)cc12 [Compound 403, tert-butyl ((5-(3-Acetyl-1-(2-((2S,4R)-2-((6-bromopyridin-2-yl)carbamoyl)-4-fluoropyrrolidin-1-yl)-2-oxoethyl)-1H-indazol-5-yl)pyrimidin-2-yl)methyl)carbamate] | < 1000 nM |
| CC(=O)c1nn(CC(=O)N2C[C@H](F)C[C@H]2C(=O)Nc2cccc(Br)n2)c2ccc(-c3cnc(CN)nc3)cc12 [Compound 404, (2S,4R)-1-(2-(3-Acetyl-5-(2-(aminomethyl)pyrimidin-5-yl)-1H-indazol-1-yl)acetyl)-N-(6-bromopyridin-2-yl)-4-fluoropyrrolidine-2-carboxamide hydrochloride] | < 1000 nM |
| CC(=O)c1nn(CC(=O)N2C[C@H](F)C[C@H]2C(=O)Nc2nc(Br)ccc2C)c2ccc(-c3cnc(C)nc3)cc12 [Compound 405, (2S,4R)-1-(2-(3-Acetyl-5-(2-methylpyrimidin-5-yl)-1H-indazol-1-yl)acetyl)-N-(6-bromo-3-methylpyridin-2-yl)-4-fluoropyrrolidine-2-carboxamide] | < 1000 nM |
| CC(=O)NCc1ncc(-c2ccc3c(c2)c(C(C)=O)nn3CC(=O)N2C[C@H](F)C[C@H]2C(=O)Nc2cccc(Br)n2)cn1 [Compound 406, (2S,4R)-1-(2-(5-(2-(Acetamidomethyl)pyrimidin-5-yl)-3-acetyl-1H-indazol-1-yl)acetyl)-N-(6-bromopyridin-2-yl)-4-fluoropyrrolidine-2-carboxamide] | < 1000 nM |
| CC(=O)c1nn(CC(=O)N2C[C@H](F)C[C@H]2C(=O)Nc2ccc(F)cn2)c2ccc(-c3cnc(C)nc3)cc12 [Compound 407, (2S,4R)-1-(2-(3-Acetyl-5-(2-methylpyrimidin-5-yl)-1H-indazol-1-yl)acetyl)-4-fluoro-N-(5-fluoropyridin-2-yl)pyrrolidine-2-carboxamide] | < 1000 nM |
| CC(=O)c1nn(CC(=O)N2C[C@H](F)C[C@H]2C(=O)Nc2ncc(F)cc2Br)c2ccc(-c3cnc(C)nc3)cc12 [Compound 408, (2S,4R)-1-(2-(3-Acetyl-5-(2-methylpyrimidin-5-yl)-1H-indazol-1-yl)acetyl)-N-(3-bromo-5-fluoropyridin-2-yl)-4-fluoropyrrolidine-2-carboxamide] | < 1000 nM |
| Cc1ncc(-c2ccc3c(c2)c([C@H](C)O)nn3CC(=O)N2[C@@H]3C[C@@H]3C[C@H]2C(=O)Nc2cccc(Br)n2)cn1 [Compound 409, (1R,3S,5R)—N-(6-Bromopyridin-2-yl)-2-(2-(3-((S)-1-hydroxyethyl)-5-(2-methylpyrimidin-5-yl)-1H-indazol-1-yl)acetyl)-2-azabicyclo[3.1.0]hexane-3-carboxamide] | < 1000 nM |
| CC(=O)c1nn(CC(=O)N2C[C@@](F)(CF)C[C@H]2C(=O)Nc2cccc(Br)n2)c2ccc(-c3cnc(C)nc3)cc12 [Compound 415, (2S,4R)-1-(2-(3-Acetyl-5-(2-methylpyrimidin-5-yl)-1H-indazol-1-yl)acetyl)-N-(6-bromopyridin-2-yl)-4-fluoro-4-(fluoromethyl)pyrrolidine-2-carboxamide] | < 1000 nM |
